From the NIST ThermoML archive (doi:10.1016/j.jct.2005.02.008)

Tests used:
[1] = Crystal; for mass density: 298.15 K, 101.33 kPa, Pycnometric method; for Normal melting temperature: DTA; for vapor or sublimation pressure: Calculated from knudsen effusion weight loss
[2] = molar heat capacity at constant pressure; conditions: 101.33 kPa, Crystal

c1ccc(-c2nc3ccccc3[nH]2)cc1 [2-phenylbenzimidazole]
[1]
Conditions | Normal melting temperature [°C] | mass density [kg/m3]
– | 191.0 | 1060

[2]
Conditions | molar heat capacity at constant pressure [J/K/mol]
268.15 K | 185.23
270.15 K | 186.33
273.15 K | 188.41
275.15 K | 189.51
280.15 K | 193.33
285.15 K | 197.27
290.15 K | 201.29
295.15 K | 205.63
298.15 K | 208.09
300.15 K | 209.51
305.15 K | 215.89
310.15 K | 220.71
315.15 K | 224.47
320.15 K | 228.09
325.15 K | 231.72
330.15 K | 235.41
335.15 K | 238.58
340.15 K | 242.27
345.15 K | 245.77
350.15 K | 249.26
355.15 K | 252.83
360.15 K | 256.06
365.15 K | 259.95
370.15 K | 263.64
375.15 K | 266.16
380.15 K | 269.14
385.15 K | 272.38
390.15 K | 276.33
395.15 K | 280.47
400.15 K | 285
405.15 K | 288.95
410.15 K | 292.32
415.15 K | 295.82
420.15 K | 300.09
425.15 K | 304.1
430.15 K | 308.05
435.15 K | 312.13
440.15 K | 316.02
445.15 K | 319.51
450.15 K | 322.1

c1ccc(Cc2nc3ccccc3[nH]2)cc1 [bendazol]
[1]
Conditions | Normal melting temperature [°C] | mass density [kg/m3]
– | 297.4 | 1140

Conditions | molar heat capacity at constant pressure [J/K/mol] | vapor or sublimation pressure [kPa]
[1], 393.54 K | – | 0.000125
[1], 396.81 K | – | 0.000178
[1], 400.16 K | – | 0.000248
[1], 402.04 K | – | 0.000299
[1], 405.47 K | – | 0.000419
[1], 409 K | – | 0.000596
[1], 412.48 K | – | 0.000829
[2], 270.15 K | 215.86 | –
[2], 273.15 K | 218.67 | –
[2], 275.15 K | 220.51 | –
[2], 280.15 K | 223.25 | –
[2], 285.15 K | 227.59 | –
[2], 290.15 K | 228.63 | –
[2], 295.15 K | 228.79 | –
[2], 298.15 K | 228.92 | –
[2], 300.15 K | 229.04 | –
[2], 305.15 K | 231.75 | –
[2], 310.15 K | 233.79 | –
[2], 315.15 K | 237.21 | –
[2], 320.15 K | 240.29 | –
[2], 325.15 K | 244.91 | –
[2], 330.15 K | 248.5 | –
[2], 335.15 K | 252.54 | –
[2], 340.15 K | 255.29 | –
[2], 345.15 K | 260.53 | –
[2], 350.15 K | 261.16 | –
[2], 355.15 K | 264.99 | –
[2], 360.15 K | 269.16 | –
[2], 365.15 K | 272.11 | –
[2], 370.15 K | 283.19 | –
[2], 375.15 K | 285.9 | –
[2], 380.15 K | 289.9 | –
[2], 385.15 K | 293.81 | –
[2], 390.15 K | 298.39 | –
[2], 395.15 K | 303.73 | –
[2], 400.15 K | 307.64 | –
[2], 405.15 K | 312.35 | –
[2], 410.15 K | 314.26 | –
[2], 415.15 K | 322.84 | –
[2], 420.15 K | 329.18 | –
[2], 425.15 K | 333.59 | –
[2], 430.15 K | 342.59 | –
[2], 435.15 K | 349.42 | –
[2], 440.15 K | 359.96 | –
